Activity calls are given as the source filed them. The calls are words filed in the database; no cut-off is given here.

In assay [1] the target is Alpha-ketoglutarate-dependent dioxygenase FTO (Homo sapiens, UniProt Q9C0B1). Briefly: Inhibition of FTO (unknown origin) assessed as reduction in demethylation using 39nt-m6 A-ssDNA and 2OG incubated for 2 hrs by non-denaturing polyacrylamide electrophoresis method.
Assay [2] has as its system MONO-MAC-6. Briefly: Antitumor activity against human MONO-MAC-6 cells xenografted in NSG mouse assessed as mouse survival at 2 mg/kg, ip dosed for ten consecutive days and measured after 120 days post treatment. It is filed as functional. As to conditions: MONO-MAC-6, ip, 2880 h. Background: Xenograft models place foreign cells or tissue in a host animal.
The test system of assay [3] is MONO-MAC-6. Briefly: Antitumor activity against human MONO-MAC-6 cells xenografted in NSG mouse assessed as reduction in tumor cell transplantation efficiency at 2 mg/kg, ip dosed for ten consecutive days and measured after 40 to days post treatment. It is filed as functional, organism-based.
Assay [4] deals with MONO-MAC-6. The assay is described as follows: Antitumor activity against human MONO-MAC-6 cells xenografted in NSG mouse assessed as mouse survival at 2 mg/kg, ip dosed for ten consecutive days and measured after 62 days post treatment. The assay is classed as functional. As to conditions: MONO-MAC-6, ip, 1488 h.
Assay [5] deals with MONO-MAC-6. The assay is described as follows: Antitumor activity against human MONO-MAC-6 cells xenografted in NSG mouse assessed as mouse survival at 2 mg/kg, ip dosed for ten consecutive days and measured after 55 days post treatment. It is filed as functional. The settings on record: MONO-MAC-6, ip, 1320 h.
Assay [6] deals with MONO-MAC-6. The assay is described as follows: Antitumor activity against human MONO-MAC-6 cells xenografted in NSG mouse assessed as mouse survival at 2 mg/kg, ip dosed for ten consecutive days and measured after 40 days post treatment. The assay is classed as functional. The settings on record: MONO-MAC-6, ip, 960 h.
Assay [7] in a line: Cytotoxicity against human MM6 cells assessed as inhibition of cell growth incubated for 72 hrs by MTS assay. The assay is classed as functional, cell-based.
The test system of assay [8] is NB-4. Briefly: Cytotoxicity against human NB4 cells assessed as inhibition of cell growth incubated for 72 hrs by MTS assay. The assay is classed as functional, cell-based. The settings on record: NB-4, 72 h. In general terms: Tetrazolium assays rely on reduction of a dye to a coloured formazan, in cell work by metabolically active cells.
A short description of assay [9]: Cytotoxicity against human MM6 cells assessed as inhibition of cell growth incubated for 48 hrs by MTS assay. The assay is classed as functional, cell-based.
Assay [10] relates to NB-4. Briefly: Cytotoxicity against human NB4 cells assessed as inhibition of cell growth incubated for 72 hrs by MTS assay relative to control. The assay is classed as functional.
In assay [11] the test system is MONO-MAC-6. The assay is described as follows: Antitumor activity against human MONO-MAC-6 cells xenografted in NSG mouse assessed as improvement in spleen swelling by measuring spleen weight at 2 mg/kg, ip dosed for ten consecutive days (reference value: 55 mg). The assay is classed as functional.
Assay [12] has as its system MONO-MAC-6. The assay is described as follows: Antitumor activity against human MONO-MAC-6 cells xenografted in NSG mouse assessed as improvement in liver swelling by measuring liver weight at 2 mg/kg, ip dosed for ten consecutive days (reference value: 2200 mg). The assay is classed as functional.
The subject of assay [13] is MONO-MAC-6. Briefly: Antitumor activity against human MONO-MAC-6 cells xenografted in NSG mouse assessed as mouse survival at 2 mg/kg, ip dosed for ten consecutive days and measured after 60 days post treatment. As to conditions: MONO-MAC-6, ip, 1440 h. It is filed as functional.
The subject of assay [14] is NB-4. Briefly: Cytotoxicity against human NB4 cells assessed as inhibition of cell growth incubated for 48 hrs by MTS assay. The assay is classed as functional, cell-based. As to conditions: NB-4, 48 h.
Assay [15] can be described thus: Cytotoxicity against human MM6 cells assessed as inhibition of cell growth incubated for 72 hrs by MTS assay relative to control. It is filed as functional.

Alpha-ketoglutarate-dependent dioxygenase FTO, sequence (Q9C0B1 whole entry): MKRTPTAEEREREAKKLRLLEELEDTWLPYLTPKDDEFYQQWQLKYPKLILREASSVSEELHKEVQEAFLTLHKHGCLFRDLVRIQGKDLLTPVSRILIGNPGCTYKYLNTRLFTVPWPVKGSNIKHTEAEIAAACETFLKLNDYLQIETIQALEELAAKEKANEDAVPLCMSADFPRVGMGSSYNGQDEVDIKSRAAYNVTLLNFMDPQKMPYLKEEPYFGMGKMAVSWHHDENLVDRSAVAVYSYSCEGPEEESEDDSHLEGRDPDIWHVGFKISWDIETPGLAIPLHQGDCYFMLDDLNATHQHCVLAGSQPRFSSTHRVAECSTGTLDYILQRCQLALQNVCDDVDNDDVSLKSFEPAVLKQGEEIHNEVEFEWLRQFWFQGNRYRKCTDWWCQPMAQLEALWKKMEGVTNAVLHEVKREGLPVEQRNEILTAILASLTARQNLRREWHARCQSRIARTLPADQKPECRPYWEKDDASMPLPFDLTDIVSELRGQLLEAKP

Take `Cc1noc(C)c1-c1cc(Cl)c(Nc2ccccc2C(=O)NO)c(Cl)c1`: the IC50 in assay [1] was found to be 1.6 µM; in assay [7], 1.5 µM; in the assay with NB-4 [8], 0.8 µM; in assay [9] it was 10.4 µM; in the assay with NB-4 [14], 4.7 µM. Moreover, the survival at 2 mg/kg in the assay with MONO-MAC-6 [2] was 15%; with MONO-MAC-6 [4] it was 30%; with MONO-MAC-6 [5] it was 60%; with MONO-MAC-6 [6], 80%; in the assay with MONO-MAC-6 [13], 40%. In addition, the outcome in the assay on MONO-MAC-6 [3] was Active. Further, the “growth inhibition (GI)” value (in the assay with NB-4 [10]; in assay [15]) was 100% throughout. In addition, the Activity in the assay on MONO-MAC-6 [11] was 18 mg; in the assay with MONO-MAC-6 [12], 800 mg.
`Cc1noc(C)c1-c1cc(Cl)c(Nc2ccccc2C(=O)O)c(Cl)c1`: the 50% inhibitory concentration (IC50) in assay [7] was 23.6 µM; in the assay on NB-4 [8], 44.8 µM. The “growth inhibition (GI)” value was 70% in the assay on NB-4 [10] and 75% in assay [15].
Take `Cc1noc(C)c1-c1cc(Cl)c(Nc2ccccc2-c2noc(=O)[nH]2)c(Cl)c1`: the IC50 was determined as 1.1 µM in assay [1]; 5.8 µM in [7]; 5.3 µM in the assay on NB-4 [8]; 9.9 µM in assay [9]; 6.3 µM with NB-4 [14]. Besides, the “growth inhibition (GI)” value (in the assay on NB-4 [10]; in [15]) was 100% each time.
With `Cc1cc(C)n(-c2cc(Cl)c(Nc3ccccc3C(=O)O)c(Cl)c2)n1`, the concentration for half-maximal inhibition (IC50) in [1] is 30 to 50 µM.
`Cc1noc(C)c1-c1cc(Cl)c(Nc2ccccc2-c2nn[nH]n2)c(Cl)c1`: the “growth inhibition (GI)” value with NB-4 [10] was 26%; in [15], 23%.
Consider `O=C(O)c1ccccc1Nc1c(Cl)cc(-c2ccncc2)cc1Cl`, for which the IC50 in [1] turned out to be 4.6 µM. In addition, the figures for the “growth inhibition (GI)” value (with NB-4 [10]; in [15]) were 39% and 46%, respectively.
The corresponding values for `O=C(O)c1ccccc1Nc1c(Cl)cc(-c2ccn[nH]2)cc1Cl` are 7.6 µM, 25% and 29%.
Consider `Cc1n[nH]c(C)c1-c1cc(Cl)c(Nc2ccccc2C(=O)O)c(Cl)c1`, for which the figures for the “growth inhibition (GI)” value (in the assay with NB-4 [10]; in [15]) were 20% and 18%, respectively.
`O=C(O)c1ccc(-c2cc(Cl)c(Nc3ccccc3C(=O)O)c(Cl)c2)s1`: the IC50 in assay [1] was found to be 1.2 µM.

The term IC50 denotes the concentration that gives 50% inhibition.

(Values after ChEMBL document CHEMBL4417641, “Use of 2-(substituted phenylamino)benzoic acid fto inhibitor in treating leukemia” (2018).)
